Test results reported in ChEMBL document CHEMBL4406826, “Discovery of δ-sultone-fused pyrazoles for treating Alzheimer's disease: Design, synthesis, biological evaluation and SAR studies” (Eur J Med Chem, 2019).
Activity calls are given as the source filed them.

Assays:
[1] = target: Acetylcholinesterase (Electrophorus electricus) (UniProt O42275); experiment: Inhibition of electric eel AChE at 20 uM using acetylthiocholine iodide as substrate preincubated with enzyme for 20 mins followed by substrate addition by Ellman's method relative to control
[2] = target: T1, Cholinesterase (Equus caballus, UniProt P81908); experiment: Inhibition of equine serum BuChE using butyrylthiocholine iodide as substrate preincubated with enzyme for 20 mins followed by substrate addition by Ellman's method
[3] = target: Cholinesterase (Equus caballus) (UniProt P81908); experiment: Mixed inhibition of equine serum BChE assessed as decrease in Vmax at 1 to 5 uM using varying levels of butyrylthiocholine iodide as substrate by Line weaver Burk reciprocal plot analysis
[4] = target: Cholinesterase (Equus caballus) (UniProt P81908); experiment: Mixed inhibition of equine serum BChE assessed as increase in substrate Km at 1 to 5 uM using varying levels of butyrylthiocholine iodide as substrate by Line weaver Burk reciprocal plot analysis
[5] = target: Cholinesterase (Equus caballus) (UniProt P81908); experiment: Non-competitive inhibition of equine serum BChE at 1 to 5 uM using varying levels of butyrylcholine iodide as substrate by Line weaver Burk reciprocal plot analysis
[6] = Octanol-PBS buffer partition coefficient, log P of the compound incubated for 24 hrs measured at pH 7.4 by shake-flask method; assay type: physicochemical
[7] = Cytotoxicity against human HepG2 cells assessed as cell viability at 5 to 50 uM measured after 24 hrs by MTT assay; assay type: cell-based; conditions: read-out: Activity
[8] = Cytotoxicity against rat PC12 cells assessed as cell viability at 5 to 50 uM measured after 24 hrs by MTT assay; assay type: cell-based, PC-12; conditions: read-out: Activity
[9] = test system: PC-12; experiment: Neuroprotective activity against H2O2-induced cytotoxicity in rat PC12 cells assessed as increase in cell viability at 10 to 25 uM pretreated for 3 hrs followed by H2O2 stimulation in continuous presence of compound for 24 hrs by MTT assay relative to control; assay type: functional
[10] = target: T1, Cholinesterase; experiment: Inhibition of equine serum BChE using varying levels of butyrylthiocholine iodide as substrate by Line weaver Burk reciprocal plot analysis
[11] = target: Acetylcholinesterase (Electrophorus electricus, UniProt O42275); experiment: Inhibition of electric eel AChE using acetylthiocholine iodide as substrate preincubated with enzyme for 20 mins followed by substrate addition by Ellman's method
[12] = target: Cholinesterase (Equus caballus) (UniProt P81908); experiment: Reversible inhibition of equine serum BChE at 0.4 to 1 uM using varying levels of butyrylcholine iodide as substrate
[13] = target: Cholinesterase (Equus caballus) (UniProt P81908); experiment: Mixed inhibition of equine serum BChE assessed as decrease in Vmax at 0.5 to 2 uM using varying levels of butyrylthiocholine iodide as substrate by Line weaver Burk reciprocal plot analysis
[14] = target: Cholinesterase (Equus caballus) (UniProt P81908); experiment: Mixed inhibition of equine serum BChE assessed as increase in substrate Km at 0.5 to 2 uM using varying levels of butyrylthiocholine iodide as substrate by Line weaver Burk reciprocal plot analysis

Sequence of Acetylcholinesterase (Electrophorus electricus) (O42275 24-633 limits assumed): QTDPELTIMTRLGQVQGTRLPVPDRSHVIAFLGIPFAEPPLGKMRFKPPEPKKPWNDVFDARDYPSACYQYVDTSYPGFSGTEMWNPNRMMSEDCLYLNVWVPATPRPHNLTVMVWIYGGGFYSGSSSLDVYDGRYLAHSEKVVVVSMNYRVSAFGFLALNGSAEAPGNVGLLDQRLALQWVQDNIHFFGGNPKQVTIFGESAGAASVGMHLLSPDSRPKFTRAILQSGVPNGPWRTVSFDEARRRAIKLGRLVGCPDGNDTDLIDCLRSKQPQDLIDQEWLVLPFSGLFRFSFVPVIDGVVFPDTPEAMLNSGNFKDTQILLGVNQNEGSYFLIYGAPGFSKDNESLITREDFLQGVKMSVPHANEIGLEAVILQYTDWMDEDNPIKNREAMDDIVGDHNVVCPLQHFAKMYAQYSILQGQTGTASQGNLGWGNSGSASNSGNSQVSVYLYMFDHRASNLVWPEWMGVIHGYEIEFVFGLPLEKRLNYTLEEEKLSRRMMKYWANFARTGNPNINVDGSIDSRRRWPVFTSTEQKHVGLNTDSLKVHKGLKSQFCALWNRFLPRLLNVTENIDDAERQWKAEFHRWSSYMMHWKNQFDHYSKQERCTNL
T1 sequence (P81908 whole entry): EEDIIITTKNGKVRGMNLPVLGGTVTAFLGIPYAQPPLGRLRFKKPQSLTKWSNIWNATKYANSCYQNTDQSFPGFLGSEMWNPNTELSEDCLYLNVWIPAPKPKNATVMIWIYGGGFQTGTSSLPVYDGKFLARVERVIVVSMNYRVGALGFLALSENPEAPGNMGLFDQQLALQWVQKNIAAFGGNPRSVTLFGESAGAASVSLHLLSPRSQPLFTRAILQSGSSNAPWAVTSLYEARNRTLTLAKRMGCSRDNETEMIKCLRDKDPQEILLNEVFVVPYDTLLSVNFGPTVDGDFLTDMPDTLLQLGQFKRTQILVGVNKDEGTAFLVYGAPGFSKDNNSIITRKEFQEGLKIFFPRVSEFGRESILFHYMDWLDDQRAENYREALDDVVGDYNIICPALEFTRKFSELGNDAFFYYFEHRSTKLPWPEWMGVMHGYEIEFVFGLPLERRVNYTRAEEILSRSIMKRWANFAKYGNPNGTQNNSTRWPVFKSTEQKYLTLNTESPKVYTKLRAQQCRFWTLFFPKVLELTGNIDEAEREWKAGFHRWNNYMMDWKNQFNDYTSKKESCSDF
Sequence of Cholinesterase (Equus caballus) (P81908 whole entry): as above
Sequence of Acetylcholinesterase (O42275 whole entry): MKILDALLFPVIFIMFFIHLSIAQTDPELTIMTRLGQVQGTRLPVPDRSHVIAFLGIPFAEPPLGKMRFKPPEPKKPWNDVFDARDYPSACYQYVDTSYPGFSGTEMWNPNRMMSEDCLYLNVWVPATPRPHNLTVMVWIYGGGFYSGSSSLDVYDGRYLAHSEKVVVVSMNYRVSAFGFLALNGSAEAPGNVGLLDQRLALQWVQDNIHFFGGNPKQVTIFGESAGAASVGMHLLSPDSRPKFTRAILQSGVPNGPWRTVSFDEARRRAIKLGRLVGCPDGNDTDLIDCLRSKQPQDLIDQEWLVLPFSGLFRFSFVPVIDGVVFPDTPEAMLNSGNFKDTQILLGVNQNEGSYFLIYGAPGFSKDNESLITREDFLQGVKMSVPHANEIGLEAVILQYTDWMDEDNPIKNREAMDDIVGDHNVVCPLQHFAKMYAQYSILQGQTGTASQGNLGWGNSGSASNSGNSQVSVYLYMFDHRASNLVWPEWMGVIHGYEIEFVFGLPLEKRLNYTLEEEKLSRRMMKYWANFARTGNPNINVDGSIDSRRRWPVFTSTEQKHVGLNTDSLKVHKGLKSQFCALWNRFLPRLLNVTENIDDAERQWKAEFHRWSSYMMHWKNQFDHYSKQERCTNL

Structure (SMILES) | inhibition [1] | IC50 [2] [µM] | logD at 24 h [6] | also measured
COc1ccc(-c2nn(-c3ccccc3Cl)c3c2CCS(=O)(=O)O3)cc1 | inactive | 0.42 | 3.04 | inhibition [3]: Active; inhibition [4]: Active; inhibition [5]: Active; viability at 24 h, 50 µM [7]: > 90%; viability at 24 h, up to 50 µM [8]: > 90%; Activity [9]: >70%; Ki [10]: 0.06 µM
Cc1nn(-c2ccccc2)c2c1C(/C=C/c1cccc(C#N)c1)CS(=O)(=O)O2 (configuration not stated) | – | 10.6 | – | IC50 [11]: 16.3 µM
CC1=NN2C(=O)Oc3c(Cl)cc(Cl)cc3C2C1 (configuration not stated) | – | – | – | IC50 [11]: > 20 µM
O=S1(=O)CCc2c(C3CC3)nn(-c3ccccc3F)c2O1 | inactive | 0.199 | 2.09 | inhibition [12]: Active
COc1ccc(-c2nn(-c3ccccc3F)c3c2C(c2ccc(Br)c(C)c2)CS(=O)(=O)O3)cc1 (configuration not stated) | inactive | 4.33 | 2.91 | –
O=S1(=O)CC(c2cccc(C(F)(F)F)c2)c2c(C3CC3)nn(-c3cccc(F)c3)c2O1 (configuration not stated) | inactive | 4.62 | 2.73 | –
COc1cccc(C2CS(=O)(=O)Oc3c2c(C2CC2)nn3-c2ccccc2F)c1 (configuration not stated) | inactive | 3.47 | 2.01 | –
Cc1nn(-c2ccccc2F)c2c1C(c1ccc(F)cc1)CS(=O)(=O)O2 (configuration not stated) | inactive | 6.1 | 2.13 | –
Cc1cc(C2CS(=O)(=O)Oc3c2c(C2CC2)nn3-c2ccccc2F)ccc1Br (configuration not stated) | inactive | 5.71 | 2.72 | –
COc1ccc(-c2nn(-c3ccccc3F)c3c2CCS(=O)(=O)O3)cc1 | inactive | 0.46 | 2.62 | inhibition [13]: Active; inhibition [14]: Active; inhibition [12]: Active; viability at 24 h, 50 µM [7]: > 90%; viability at 24 h, up to 50 µM [8]: > 90%; Activity [9]: >70%; Ki [10]: 0.145 µM
